# Measured values reported in paper PMC9823006 (Nature Communications, 2023).
# Where “and” joins values, the source holds several entries; their conditions need not be identical. Equal values may be shown once. Read-outs that look alike come from different tables or passages of the source.
# How the values were obtained:
# Kal^Sec14 [1] = target: T1, Kal^Sec14 (Rattus norvegicus, UniProt P97924, N62Y/T46S); test: NMR chemical shift perturbation (CSP) titration, 1H-15N HSQC; format: binding
# T1 construct: 19.4 kDa); His6 (TEV-cleavable) (N, cleaved yes); made in house; host or cells: E. coli BL21(DE3)
# Procedure: (§1) ^1H-^15N HSQC spectra of the uniformly ^15N-labeled Kal^bSec14 and Kal^Sec14 were recorded at 25 °C on an Agilent VNMRS 800 MHz (^1H) spectrometer equipped with a cryogenic probe. ^1H-^15N HSQC spectra of the uniformly ^15N-labeled Kal^bSec14 mutants were recorded using the TopSpin software (https://www.bruker.com/en/products-and-solutions/mr/nmr-software/topspin.html) at 25 °C on a Bruker Avance NEO 600 MHz spectrometer equipped with a cryogenic probe. All detergents and lipids used in this study were purchased from Cube Biotech Inc. (Wayne, Pennsylvania) and Avanti Polar Lipids, Inc. (Alabaster, Alabama), respectively; details are listed in Supplementary Table 2. After collecting an initial protein-only spectrum with a starting protein concentration of 0.4 mM, each detergent or lipid was dissolved in the same NMR buffer and gradually added to the protein until no further CSP was observed. Each series usually comprised 8-12 titration points, with ligand concentrations ranging from 0 to 8 mM and final protein:ligand ratios from 1:7 to 1:25 (the protein concentration in each mixture during titration was confirmed by UV-vis absorbance at 280 nm). The HSQC spectrum was recorded for each titration point using the same instrument setup as that of the apo protein. All spectra were processed with NMRPipe[59], and peak heights and locations were analyzed in CcpNmr Analysis[60].
# (§2) For each titration series, observed CSPs for a single amino acid residue were calculated using the combined shift change (Δδ) of the backbone amide nitrogen and proton based on the equation △δ(ppm)=[△δH2+(α⋅△δN)^2] , where ΔδH and ΔδN are the ^1H and ^15N chemical shift differences between the free and bound states, respectively, and α denotes the chemical shift scaling factor for ^15N[63].
# (§3) In each titration series, the peaks for all residues were ranked based on the CSP observed upon titration at the highest ligand concentration. […] The well-resolved and non-overlapped CSPs, usually including most of the 2σ CSPs and some of the 1σ CSPs, were then plotted as a function of the ligand concentration and the dissociation constant (KD) was extracted by nonlinear least-square fitting of the following equation: △δobs=△δmax(KD+[L]t+[P]t)−(KD+[L]t+[P]t)^2−4[L]t[P]t/2[P]t , where [P]t and [L]t are the total protein and ligand concentrations, respectively, and △δmax is the chemical shift difference at saturation. The bound fraction plotted as the y-axis in the Figures was defined as △δobs/△δmax based on the average of the normalized CSPs from all the selected peaks. Titration data for each residue and each peak used for KD calculations are provided in the Source Data file.
# KalbSec14 [2] = target: T2, KalbSec14 (Rattus norvegicus, UniProt P97924, N62Y/T46S); test: as above; format: binding
# T2 construct: His6 (TEV-cleavable) (N, cleaved yes); made in house; host or cells: E. coli BL21(DE3)
# Procedure: as §1, §2, §3
# KalbSec14 [3] = target: T2, KalbSec14; test: Isothermal titration calorimetry (preliminary); format: binding; settings: data not shown; authors' response in peer review file; read-out: estimated KD from preliminary ITC data
# α-TTP = target: α-TTP; parameters: method as in earlier work; settings: quoted by reviewer as specific binding; ref 1 Panagabko, C. et al. Biochemistry 42, 6467–74 (2003); cited from earlier work
# KalbSec14 [4] = target: T2, KalbSec14; test: Liposome flotation binding assay (Accudenz gradient, Western blot)
# Procedure: Unilamellar liposomes formed by mixing synthetic dioleoyl phospholipids and cholesterol in proportions mimicking the membranes of the trans-Golgi network (Golgi-mixture) were incubated with Kal^bSec14. An Accudenz gradient was used to separate liposome-bound proteins, which were recovered from the top of the gradient (fraction 1), from unbound proteins, which remained at the bottom (fraction 4). Protein levels in each fraction were analyzed by Western blotting with an antibody to the Sec14 domain of Kalirin.
# (§4) The synthetic and natural lipids used in flotation assays were purchased from Avanti Polar Lipids, Inc. (Supplementary Table 2). All powdered lipids were dissolved in chloroform per the manufacturer’s instructions. Liposomes were prepared as previously described. […] Individual test lipids were dried together with the control lipid mix under a nitrogen stream and lyophilized overnight. Each dried lipid film was reconstituted to a final concentration of 1 mM in HN buffer containing 20 mM HEPES (pH 7.4) and 150 mM NaCl. Each final lipid mixtures consisted of 52% DOPC, 20% DOPE, 5% DOPS, 15% cholesterol and 8% tested lipid; inclusion of a trace amount of fluorescent lipid (Liss Rhod PE) allowed for localization of liposomes following gradient fractionation (see below). Each lipid mixture underwent five freeze-thaw cycles separated by vigorous vortexing each time it was thawed. Using a mini-extruder, unilamellar liposomes were prepared by passing each lipid mixture 21 times through a polycarbonate membrane of 100-nm pore size. Hydrated lipid mixtures were stored at −20 °C for up to 1 month; liposomes were freshly prepared for each experiment.
# (§5) Flotation assays were conducted following the protocol previously described. Accudenz (Accurate Chemical and Scientific Corp., Westbury, NY) solutions (80 and 20% weight/vol) were prepared in HN buffer. To remove any particulate material, the protein to be tested was first centrifuged at 436,000 g at 4 °C for 15 min in a TL-100 ultracentrifuge using a Beckman TLA100.2 fixed angle rotor. Freshly prepared unilamellar liposomes (50 μl) were combined with 0.2 μg of the centrifuged protein and incubated at room temperature for 30 min. The entire liposome/protein mixture was then combined with 50 μl of 80% Accudenz at the bottom of an ultracentrifuge tube and carefully mixed to completion by pipetting. The resulting mixture was overlayered with […] of 20% Accudenz and then with 50 μl of HN buffer. Samples were centrifuged at 259,000 g at 4 °C for 30 min in the same ultracentrifuge using a Beckman TLS55 swinging bucket rotor. Gradients were then divided into four 100-μl fractions, which were carefully collected from the bottom of the tube using gel loading micropipette tips. Each fraction was analyzed for liposome and protein content using spectrophotometry (546-nm excitation/571-nm emission) and Western blot, respectively. Only those assays with at least 90% of the Liss Rhod PE marker recovered in the top fraction (fraction 1) were used for Western bloting analysis.
# (§6) For Western bloting analysis, equal aliquots of each gradient fraction were denatured in 1× Laemmli sample buffer, fractionated on 15% acrylamide gels, and transferred to PVDF membranes. The protein content was detected using a custom-made rabbit antibody to the Sec14 domain of Kalirin (CT302[69], 1:3000) and an HRP-tagged goat anti-rabbit IgG (H + L) secondary antibody (catalog # 31460, 1:6000; ThermoFisher Scientific). SuperSignal West chemiluminescent substrate (Thermo Scientific) and a Syngene PXi digital imaging system (Synoptics Group) were used to visualize blots, with exposures adjusted to be in the linear range.
# Kal^Sec14 [5] = target: T1, Kal^Sec14; test: as above; settings: Suppl. Fig. 9b,c
# Procedure: as §4, §5
# as §6, with “range. After background subtraction, bands were quantified using the GeneSys software provided with the imaging system, and data were represented as a proportion of total protein recovered. Uncropped blots, quantification of each data point and exact P-values are provided in the Source Data file. […]” for “range.”
# a. Representative Western blots from flotation assays with Kal Sec14 alone (Control), and Kal Sec14 with the control lipid mix (Lipo) or with the lipid mix containing the indicated additional lipid. After binding and separation of liposome bound Kal Sec14 from unbound Kal Sec14 on Accudenz gradients, the protein content of four gradient fractions was dete rmined by immunoblot; liposomes were recovered from the top fraction (fraction 1). Source data are […]
# Kal^cSec14 = settings: previous studies; cited from earlier work
# [6] = construct without Ex1B front peptide, NMR titration, mean ± S.D. over residues, 25 °C, read-out: KD
# [7] = NMR titration, two-state binding model, mean ± S.D. of CSP data for individual residues, 25 °C, read-out: KD
# [8] = source data of the global fitting, S.D. in the next column, read-out: KD, Ave of residue peaks
# [9] = mean of independent experiments, normalized to total protein recovered, test lipid 8% of liposome lipid
# [10] = average, biological replication ≥ 3
# [11] = individual experiments (Exp. 1-4)
compound,measurement,setting,value
"CCCCCCCCCCCCOP(=O)([O-])OCC[N+](C)(C)C [FC12, dodecylphosphocholine]",Kd,Kal^Sec14 [1]; [6],514 ± 66 µM
same,Kd,"Kal^Sec14 [1]; read-out: KD of FC12 binding to KalSec14, Ave, average over residue peaks 1-20",514 µM
same,Kd,"Kal^Sec14 [1]; read-out: KD of FC12 binding to KalSec14, fit of individual residue peak, residue peaks 1-20, ligand concentrations given in mM",498 µM and 470 µM and 575 µM and 487 µM (2×) and 514 µM and 590 µM and 540 µM and 542 µM and 537 µM and 496 µM (2×) and 477 µM and 505 µM and 512 µM and 511 µM and 332 µM and 481 µM and 555 µM and 685 µM
same,Kd,KalbSec14 [2]; [7],245 ± 36 µM
same,Kd,KalbSec14 [2]; [8],245 µM
same,Kd,"KalbSec14 [2]; source data of the global fitting, peaks numbered, residues not named, read-out: KD fitted for individual residue peaks",198 µM and 290 µM and 295 µM and 203 µM and 213 µM and 217 µM and 232 µM and 242 µM and 245 µM and 277 µM and 286 µM
same,Kd,KalbSec14 [3],~500 µM
"CCCCCCCCCCCCCCOP(=O)([O-])OCC[N+](C)(C)C [FC14, tetradecylphosphocholine]",Kd,Kal^Sec14 [1]; [6],35.6 ± 7.2 µM
same,Kd,"Kal^Sec14 [1]; read-out: KD of FC14 binding to KalSec14, Ave, average over residue peaks 1-24",35.6 µM
same,Kd,"Kal^Sec14 [1]; read-out: KD of FC14 binding to KalSec14, fit of individual residue peak, residue peaks 1-24, ligand concentrations given in mM",47.7 µM and 39.3 µM (2×) and 55.2 µM and 45.5 µM and 35.6 µM (3×) and 25.3 µM and 26.6 µM and 37.4 µM (4×) and 32.3 µM (3×) and 33.9 µM (3×) and 27.9 µM (2×) and 41.2 µM and 24.1 µM
same,Kd,KalbSec14 [2]; [7],17.1 ± 4.9 µM
same,Kd,KalbSec14 [2]; [8],17.1 µM
same,Kd,KalbSec14 [3],~30 µM
Cc1c(C)c2c(c(C)c1O)CC[C@@](C)(CCC[C@H](C)CCC[C@H](C)CCCC(C)C)O2 [α-tocopherol],Kd,α-TTP,0.025 µM
L-α-phosphatidylinositol-4-phosphate [PI4P],binding of Kal^bSec14 to liposomes containing the lipid,"KalbSec14 [4]; Golgi-mixture liposomes with 8% test lipid, result in words",does not interact
same,"Fraction 1 protein content (top fraction, liposome-bound), densitometry, Ave.",KalbSec14 [4]; [9],0.0251
same,"Fraction 2 protein content, densitometry, Ave.",KalbSec14 [4]; [9],0.0079
same,"Fraction 3 protein content, densitometry, Ave.",KalbSec14 [4]; [9],0.11
same,"Fraction 4 protein content (bottom fraction, unbound), densitometry, Ave.",KalbSec14 [4]; [9],0.86
same,"Fraction 4 protein content (bottom fraction, unbound), densitometry","KalbSec14 [4]; single experiments, normalized to total protein recovered, test lipid 8% of liposome lipid",0.87 and 0.90 and 0.84 and 0.91 and 0.78
same,"Densitometry values for the Western blots, Fraction 1, Ave.",Kal^Sec14 [5]; [10],0.06
same,"Densitometry values for the Western blots, Fraction 2, Ave.",Kal^Sec14 [5]; [10],0.02
same,"Densitometry values for the Western blots, Fraction 3, Ave.",Kal^Sec14 [5]; [10],0.13
same,"Densitometry values for the Western blots, Fraction 4, Ave.",Kal^Sec14 [5]; [10],0.79
same,"Densitometry values for the Western blots, Fraction 1",Kal^Sec14 [5]; [11],0.08 and 0.06 and 0.0331
same,"Densitometry values for the Western blots, Fraction 2",Kal^Sec14 [5]; [11],0.00889 and 0.05 and 0.0021
same,"Densitometry values for the Western blots, Fraction 3",Kal^Sec14 [5]; [11],0.04 and 0.22 and 0.13
same,"Densitometry values for the Western blots, Fraction 4",Kal^Sec14 [5]; [11],0.87 and 0.67 and 0.84
same,interaction of Kal^cSec14 with liposomes containing the lipid,Kal^cSec14,specifically interacts
